Measurements as given in US9447038B2 (SANOFI, priority 2012, dated 2016).
Counter-ions that a name gives are not always drawn.

Molecular target: human CXCR3-A receptor (Homo sapiens (Human), UniProt P49682)
Test: 125I-CXCL10 competition radioligand binding assay;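 also: One-hour incubation of membranes with tracer, bound radioligand separated by glass fibre filtration, IC50 derived from four-parameter nonlinear fit of competition curves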
Conditions: displacement of 125I-CXCL10 from membranes of CHO cells expressing human recombinant CXCR3-A

human CXCR3-A receptor, sequence (P49682 whole entry): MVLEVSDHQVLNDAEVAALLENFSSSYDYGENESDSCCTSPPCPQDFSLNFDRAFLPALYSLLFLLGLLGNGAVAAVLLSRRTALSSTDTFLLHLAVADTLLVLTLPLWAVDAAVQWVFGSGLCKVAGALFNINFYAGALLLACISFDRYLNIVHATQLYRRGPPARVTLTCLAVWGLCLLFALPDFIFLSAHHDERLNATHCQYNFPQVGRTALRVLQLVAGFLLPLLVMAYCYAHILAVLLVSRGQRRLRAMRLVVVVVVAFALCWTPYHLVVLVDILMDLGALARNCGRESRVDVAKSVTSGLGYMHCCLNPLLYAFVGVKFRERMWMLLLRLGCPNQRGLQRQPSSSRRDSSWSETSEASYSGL

First: Cc1cc(CN(CC2CCCCC2)[C@H](CC(=O)O)c2ccc(Cl)cc2)ccc1OCCN1C(=O)CN(C)C1=O [Example 31, (R)-3-(4-Chloro-phenyl)-3-(cyclohexylmethyl-{3-methyl-4-[2-(3-methyl-2,5-dioxo-imidazolidin-1-yl)-ethoxy]-benzyl}-amino)-propionic acid]
Second: Cc1cc(CN(CC2CCCCC2)[C@@H](CC(=O)O)c2ccc(Cl)cc2)ccc1OCCN1C(=O)CN(C)C1=O [Example 30, (S)-3-(4-Chloro-phenyl)-3-(cyclohexylmethyl-{3-methyl-4-[2-(3-methyl-2,5-dioxo-imidazolidin-1-yl)-ethoxy]-benzyl}-amino)-propionic acid]
The IC50 of the first is 7.6-fold higher: 416 nM for the first, 55 nM for the second.

Compared with `CCCN(Cc1ccc(OCCN2C(=O)CCC2=O)c(CC)c1)C(CC(=O)O)c1ccc(Cl)cc1` (stereo not shown) [Example 85, 3-(4-Chloro-phenyl)-3-({4-[2-(2,5-dioxo-pyrrolidin-1-yl)-ethoxy]-3-ethyl-benzyl}-propyl-amino)-propionic acid], `CCCN(Cc1ccc(OCCN2C(=O)CCC2=O)c(F)c1)[C@H](CC(=O)O)c1ccc(Cl)cc1` [Example 52, (R)-3-(4-Chloro-phenyl)-3-({4-[2-(2,5-dioxo-pyrrolidin-1-yl)-ethoxy]-3-fluoro-benzyl}-propyl-amino)-propionic acid] is 17-fold higher in IC50: 58 nM for the first, 990 nM for the second. The first is the more potent here.

Going from `Cc1cc(CN(CC2CCCC2)C(CC(=O)O)c2ccc3c(c2)CCO3)ccc1OCCn1c(=O)ccn(C)c1=O` (stereo not shown) [Example 160, 3-(Cyclopentylmethyl-{3-methyl-4-[2-(3-methyl-2,6-dioxo-3,6-dihydro-2H-pyrimidin-1-yl)-ethoxy]-benzyl}-amino)-3-(2,3-dihydro-benzofuran-5-yl)-propionic acid] to `CCCN(Cc1ccc(OCCn2c(=O)ccn(C)c2=O)c(C)c1)C(CC(=O)O)c1ccc2c(c1)CCO2` (stereo not shown) [Example 155, 3-(2,3-Dihydro-benzofuran-5-yl)-3-({3-methyl-4-[2-(3-methyl-2,6-dioxo-3,6-dihydro-2H-pyrimidin-1-yl)-ethoxy]-benzyl}-propyl-amino)-propionic acid], the IC50 rises from 81 nM to 529 nM (6.5-fold).

Going from `Cc1cc(CN(CC2CC2)C(CC(=O)O)c2ccc(Cl)cc2Cl)ccc1OCCN1C(=O)CCC1=O` (stereo not shown) [Example 163, 3-(Cyclopropylmethyl-{4-[2-(2,5-dioxo-pyrrolidin-1-yl)-ethoxy]-3-methyl-benzyl}-amino)-3-(2,4-dichloro-phenyl)-propionic acid] to `Cc1cc(CN(CC2CCC2)[C@@H](CC(=O)O)c2ccc(Cl)cc2)ccc1OCCN1C(=O)CCC1=O` [Example 71, (S)-3-(4-Chloro-phenyl)-3-(cyclobutylmethyl-{4-[2-(2,5-dioxo-pyrrolidin-1-yl)-ethoxy]-3-methyl-benzyl}-amino)-propionic acid], the IC50 falls from 162 nM to 54 nM (3-fold).

First: CCc1cc(CN(CC2CCCC2)C(CC(=O)O)c2ccc(Cl)c(F)c2)ccc1OCCN1C(=O)CCC1=O (stereo not shown) [Example 94, 3-(4-Chloro-3-fluoro-phenyl)-3-(cyclopentylmethyl-{4-[2-(2,5-dioxo-pyrrolidin-1-yl)-ethoxy]-3-ethyl-benzyl}-amino)-propionic acid]
Second: CCc1cc(CN(CC2CCCCC2)C(CC(=O)O)c2ccc(Cl)c(Cl)c2)ccc1OCCN1C(=O)CCC1=O (stereo not shown) [Example 101, 3-(Cyclohexylmethyl-{4-[2-(2,5-dioxo-pyrrolidin-1-yl)-ethoxy]-3-ethyl-benzyl}-amino)-3-(3,4-dichloro-phenyl)-propionic acid]
The IC50 of the first is 4.1-fold lower: 71 nM for the first, 292 nM for the second.

Going from `COc1cc(CN(CC2CC2)[C@@H](C(=O)O)c2ccc(Cl)c(Cl)c2)ccc1OCCN1C(=O)CCC1=O` [Example 111, (R)-(Cyclopropylmethyl-{4-[2-(2,5-dioxo-pyrrolidin-1-yl)-ethoxy]-3-methoxy-benzyl}-amino)-(3,4-dichloro-phenyl)-acetic acid] to `O=C(O)CC(c1ccc(Cl)c(Cl)c1)N(Cc1ccc(OCCN2C(=O)CCC2=O)c(Cl)c1)CC1CC1` (stereo not shown) [Example 106, 3-({3-Chloro-4-[2-(2,5-dioxo-pyrrolidin-1-yl)-ethoxy]-benzyl}-cyclopropylmethyl-amino)-3-(3,4-dichloro-phenyl)-propionic acid; hydrochloride], the IC50 falls from 420 nM to 223 nM (1.9-fold). The second is the more potent here.

Going from `CCCCN(Cc1ccc(OCCN2C(=O)CCC2=O)c(F)c1)C(CC(=O)O)c1ccc(Cl)c(Cl)c1` (stereo not shown) [Example 64, 3-(Butyl-{4-[2-(2,5-dioxo-pyrrolidin-1-yl)-ethoxy]-3-fluoro-benzyl}-amino)-3-(3,4-dichloro-phenyl)-propionic acid] to `CCCN(Cc1ccc(OCCN2C(=O)CCC2=O)c(C)c1)C(CC(=O)O)c1ccc(Cl)c(F)c1` (stereo not shown) [Example 75, 3-(4-Chloro-3-fluoro-phenyl)-3-({4-[2-(2,5-dioxo-pyrrolidin-1-yl)-ethoxy]-3-methyl-benzyl}-propyl-amino)-propionic acid], the IC50 falls from 456 nM to 25 nM (18-fold).

First: Cc1cc(CN(CC(C)C)C(CC(=O)O)c2ccc3c(c2)CCO3)ccc1OCCn1c(=O)ccn(C)c1=O (stereo not shown) [Example 158, 3-(2,3-Dihydro-benzofuran-5-yl)-3-(isobutyl-{3-methyl-4-[2-(3-methyl-2,6-dioxo-3,6-dihydro-2H-pyrimidin-1-yl)-ethoxy]-benzyl}-amino)-propionic acid]
Second: COc1cc(CN(CC(C)C)C(CC(=O)O)c2ccc3c(c2)CCO3)ccc1CCCN1C(=O)CCC1=O (stereo not shown) [Example 141, 3-(2,3-Dihydro-benzofuran-5-yl)-3-({4-[3-(2,5-dioxo-pyrrolidin-1-yl)-propyl]-3-methoxy-benzyl}-isobutyl-amino)-propionic acid]
The IC50 of the first is 1.7-fold higher: 75 nM for the first, 43 nM for the second. The second is the more potent here.

First: O=C(O)CC(c1ccc(Cl)cc1)N(Cc1ccc(OCCN2C(=O)CCC2=O)c(F)c1)CC1CCCC1 (stereo not shown) [Example 56, 3-(4-Chloro-phenyl)-3-(cyclopentylmethyl-{4-[2-(2,5-dioxo-pyrrolidin-1-yl)-ethoxy]-3-fluoro-benzyl}-amino)-propionic acid]
Second: COc1cc(CN(CC2CC2)C(CC(=O)O)c2ccc(Cl)cc2)ccc1OCCN1C(=O)CCC1=O (stereo not shown) [Example 36, 3-(4-Chloro-phenyl)-3-(cyclopropylmethyl-{4-[2-(2,5-dioxo-pyrrolidin-1-yl)-ethoxy]-3-methoxy-benzyl}-amino)-propionic acid]
The IC50 of the first is 2.6-fold higher: 52 nM for the first, 20 nM for the second.

Compared with `Cc1cc(CN(CC(C)C)C2c3ccc(Cl)cc3CC2C(=O)O)ccc1OCCN1C(=O)CCC1=O` (stereo not shown) [Example 174, 5-Chloro-1-({4-[2-(2,5-dioxo-pyrrolidin-1-yl)-ethoxy]-3-methyl-benzyl}-isobutyl-amino)-indan-2-carboxylic acid], `Cc1cc(CN(CC2CCCCC2)C(CC(=O)O)c2ccc(Cl)c(Cl)c2)ccc1OCCN1C(=O)CCC1=O` (stereo not shown) [Example 83, 3-(Cyclohexylmethyl-{4-[2-(2,5-dioxo-pyrrolidin-1-yl)-ethoxy]-3-methyl-benzyl}-amino)-3-(3,4-dichloro-phenyl)-propionic acid] is 2.6-fold lower in IC50: 800 nM for the first, 302 nM for the second.

First: CCCN(Cc1ccc(SCCN2C(=O)CCC2=O)c(OC)c1)C(CC(=O)O)c1ccc(Cl)c(Cl)c1 (stereo not shown) [Example 192, 3-(3,4-Dichloro-phenyl)-3-({4-[2-(2,5-dioxo-pyrrolidin-1-yl)-ethylsulfanyl]-3-methoxy-benzyl}-propyl-amino)-propionic acid]
Second: CN1CC(=O)N(CCOc2ccc(CN(CC3CCCC3)[C@H](CC(=O)O)c3ccc(Cl)cc3)cc2Cl)C1=O [Example 201, (R)-3-({3-Chloro-4-[2-(3-methyl-2,5-dioxo-imidazolidin-1-yl)-ethoxy]-benzyl}-cyclopentylmethyl-amino)-3-(4-chloro-phenyl)-propionic acid]
The IC50 of the first is 16-fold lower: 55 nM for the first, 886 nM for the second. The first is the more potent here.
